Consider one compound from US20220273660A1, “MEK INHIBITOR FOR TREATMENT OF STROKE” (EDVINCE AB, priority 2019, published 2022).

“Also recorded” adds a separate entry of the source.

The test system of data set [1] is rat middle cerebral arteries (ETB receptor). As to the kind of experiment: 48 h in vitro organ culture of MCAs, wire myography (S6c, ET-1). It is filed as cell-based. On the procedure:
MCAs from naïve rats were dissected and segments (1.5 mm) were incubated for 48 h in Dulbecco's modified Eagle's medium contained L-glutamine (584 mg/L) supplemented with penicillin (100 U/ml) and streptomycin ([…]) at humidified 5% CO2 atmosphere. Before incubation, 4 different concentrations of trametinib (5 μM, 1 μM, 0.1 μM or 0.03 μM), dissolved in 0.1% dimethyl sulfoxide (DMSO) in NaCl, or 0.1% DMSO in NaCl (vehicle) was added.

Another data set deals with ETB receptor. As to the kind of experiment: Intracellular flow cytometry of SMC expressing ETB receptor after SAH. Particulars: i.p. at 6 and 24 h post-SAH. Format: in vivo, rat. As for the experimental part:
The MCAs, BA and the circle of Willis were pooled from one rat. The VSMCs of the cerebral arteries was isolated by a novel technique advanced by the present inventors based on two other protocols (Navone et al, 2013, Nat Protoc; van Beijnum et al, 2008, Nat Protoc). The tissue were disrupted mechanically (scalpel) and then subjected to enzymatic digestion with highly purified Collagenase I and Collagenase II. Isolated cell suspensions were fixed with 4% paraformaldehyde for 30 minutes, washed with PBS and thereafter permeabilized with 0.25% TritonX-100. Cells were resuspended in blocking buffer containing 5% donkey serum and double-stained overnight at 4° C. with primary goat anti-SM22α (1:100, Abcam) or goat isotope control IgG (5 μg/mL, Abcam) and primary antibody rabbit anti-ETB (1:100, Abcam) or rabbit isotope control IgG (10 μg/mL, Abcam) in the same blocking buffer. […] Finally, cell suspensions were diluted to a final volume of 0.5 mL with PBS before analyzed by fluorescent-activated cell sorting (FACS) on the BD FACSVerse machine (BD Biosciences, USA). Fluorescence was induced with a 640 nm red laser. The ratio of SM22α-positive cells expressing ETB was calculated in each sample. Data was analyzed by the BD FACSuite Software.

Data set [2] deals with rat subarachnoid hemorrhage model. As to the kind of experiment: In vivo SAH, intraperitoneal trametinib, ET-1 concentration-response in BAs (Example 11).
Experimental: Thirty-two rats were operated for this study. Animals were treated intraperitoneally with 250 μl/body weight of a 1 mM solution of trametinib (Selleckchem), yielding a final dose of 95 μg/body weight, diluted in 10% cremophor and 10% PEG400 in NaCl. Animals in the vehicle and sham group were treated with 250 μl/body weight 10% cremophor and 10% PEG400 in NaCl. Treatment was intraperitoneally administered either at 1 h and 24 h or 6 h and 24 h post surgery. Animals were terminated 48 h after surgery by CO2 anesthesia and decapitation.
Another data set is described as follows: Solubility (statement). It is filed as physicochemical.
Data set [3] concerns rat subarachnoid haemorrhage model. Nature of the data set: Rotating pole test after SAH, intrathecal treatment. Format: in vivo. Particulars: SAH + i.t. treatment. As for the experimental part:
The intrathecal (i.t.) treatment volumes were estimated for a cerebrospinal fluid (CSF) volume of approximately 90 μL (21) and the total dose was administered as three treatments (4 hours, 10 hours and 24 hours) through the PinPort in the ICP catheter placed in the cisterna magna during the surgical procedure. The first and third injections were given under fixation of the rat. Since the treatment 10 hours post-surgery was administered by a single researcher, the rats were briefly anaesthetised with isoflurane 3.5-4% (maintained at 1.75-2%) in atmospheric air/O2 (70%/30%) using a facemask, to prevent sudden movements of the rat. […]
Gross sensorimotor function was evaluated using a rotating pole test, including a baseline evaluation on the day before induction of SAH. Briefly, movement across a 10-rpm rotating pole (45 mm diameter, 150 cm length) was evaluated with a cage at the end that contain the rat's own bedding material (“smells like home”). Rat performance was scored according to the following definitions: Low, the animal is unable to cross the pole without falling off; High, the animal can traverse the entire pole without falling off. […] Pre-SAH and on day 1 and 2 after surgery, each animal was scored twice for left and right rotation respectively, i.e. 4 counts per animal. […]

Take `CC(=O)Nc1cccc(-n2c(=O)n(C3CC3)c(=O)c3c(Nc4ccc(I)cc4F)n(C)c(=O)c(C)c32)c1` [trametinib]: the “increased ET-1-induced vasoconstriction of MCAs” value in data set [1] (0.1 μM, 48 h OC) is listed as “total blockage of the ETB receptor subtype response; also recorded: significantly inhibit; also recorded: inhibitory effect”. Moreover, in data set [1] (48 h OC, 5, 1, 0.1 or 0.03 μM, concentration-dependent), the “S6c-induced contraction of MCAs” value was “significantly inhibited”. Also, in the data set on ETB receptor, the “increased ETB receptor protein expression in SMC” value is listed as “not significant abolished”. Besides, the “increased ET-1-induced concentration-response curve in BAs after SAH” value is given as “significantly inhibited” in data set [2] (i.p. 1 mM at 1 and 24 h post-SAH); “significantly inhibited” in data set [2] (i.p. 1 mM at 6 and 24 h post-SAH). Also, the solubility entry in the data set “Solubility (statement)” is reported as “excellent solubility”. For the same compound, the “neurological assessment scores (rotating pole test)” value in data set [3] was “Improved neurological assessment scores”. Also, in data set [3] (48 hours post-SAH, 10 rpm), the “rotating pole Score48 h (% high score count/total score count)” value turned out to be 96%.
